This note sets out measurements from ChEMBL document CHEMBL1154771, “Discovery of the first series of small molecule H5N1 entry inhibitors” (J Med Chem, 2009).

What all share (type): cell-based
Assay [1] is described as follows: Inhibition of Influenza A virus (A/Viet Nam/1203/2004(H5N1)) hemagglutininin-mediated viral entry into human A549 cells assessed as luciferase activity after 48 hrs postinfection by luminometry.
Assay [2] can be described thus: Inhibition of Influenza A virus (A/Bar-headed Goose/Qinghai/59/05(H5N1)) hemagglutininin-mediated viral entry into human A549 cells assessed as luciferase activity after 48 hrs postinfection by luminometry.
The subject of assay [3] is A549. In words: Inhibition of Influenza A virus (A/Bar-headed Goose/Qinghai/59/05(H5N1)) hemagglutininin-mediated viral entry into human A549 cells assessed as infectivity at 10 uM after 48 hrs postinfection by luciferase assay relative to control. On the set-up: scale not given: the % may be the effect or the level left.
Assay [4] deals with A549. Nature of the assay: Inhibition of Vesicular stomatitis virus envelope glycoprotein-mediated viral entry into human A549 cells assessed as infectivity at 10 uM after 48 hrs postinfection by luciferase assay relative to control. On the set-up: scale not given: the % may be the effect or the level left.
The subject of assay [5] is A549. Nature of the assay: Inhibition of Influenza A virus (A/Viet Nam/1203/2004(H5N1)) hemagglutininin-mediated viral entry into human A549 cells assessed as infectivity at 10 uM after 48 hrs postinfection by luciferase assay relative to control. On the set-up: scale not given: the % may be the effect or the level left.

As usually defined, the IC50 is the concentration that gives 50% inhibition. `CC(=O)O[C@H]1C[C@@H]2[C@H](CC[C@]3(C)[C@@H]4[C@H](C[C@@H]23)O[C@]2(CC[C@@H](C)CO2)[C@H]4C)[C@@]2(C)CC[C@H](O[C@@H]3O[C@H](CO)[C@@H](O[C@@H]4O[C@@H](C)[C@H](O)[C@@H](O)[C@H]4O)[C@H](O)[C@H]3O[C@@H]3O[C@@H](C)[C@H](O)[C@@H](O)[C@H]3O)C[C@H]12`: the IC50 amounted to 9.25 µM in assay [1] and 7.58 µM in assay [2]. In addition, the Activity in assay [3] was determined as 50.4%; in assay [4], 101%; in assay [5] it was 46.6%.

On to `C[C@@H]1CC[C@@]2(OC1)O[C@H]1C[C@H]3[C@@H]4C[C@H](O)[C@H]5C[C@@H](O[C@@H]6O[C@H](CO)[C@@H](O[C@@H]7O[C@@H](C)[C@H](O)[C@@H](O)[C@H]7O)[C@H](O)[C@H]6O[C@@H]6O[C@@H](C)[C@H](O)[C@@H](O)[C@H]6O)CC[C@]5(C)[C@H]4CC[C@]3(C)[C@H]1[C@@H]2C`, for which the IC50 in assay [1] was found to be 7.84 µM; in assay [2] it was 7.22 µM. For the same compound, the Activity in assay [3] was 42.6%; in assay [4], 111%; in assay [5] it was 36.3%.

For the compound `C[C@@H]1CC[C@@]2(OC1)O[C@H]1C[C@H]3[C@@H]4C[C@H](O)[C@H]5C[C@@H](O[C@@H]6O[C@H](CO)[C@@H](O)[C@H](O)[C@H]6O[C@@H]6O[C@@H](C)[C@H](O)[C@@H](O)[C@H]6O)CC[C@]5(C)[C@H]4CC[C@]3(C)[C@H]1[C@@H]2C`, the figures for the Activity in assay [3], in assay [4] and in assay [5] were 61%, 122% and 57.9%, respectively.

For `C[C@@H]1O[C@@H](O[C@H]2[C@H](O[C@H]3CC[C@@]4(C)C(=CC[C@@H]5[C@@H]4CC[C@]4(C)C(=O)CC[C@@H]54)C3)O[C@H](CO)[C@@H](O[C@@H]3O[C@@H](C)[C@H](O)[C@@H](O)[C@H]3O)[C@@H]2O)[C@H](O)[C@H](O)[C@H]1O`, the Activity in assay [3] turned out to be 108%; in assay [4], 100%; in assay [5], 106%.

For `C[C@@H](CO)CC[C@H]1O[C@H]2C[C@H]3[C@@H]4C[C@H](O)[C@H]5C[C@@H](O[C@@H]6O[C@H](CO)[C@@H](O[C@@H]7O[C@@H](C)[C@H](O)[C@@H](O)[C@H]7O)[C@H](O)[C@H]6O[C@@H]6O[C@@H](C)[C@H](O)[C@@H](O)[C@H]6O)CC[C@]5(C)[C@H]4CC[C@]3(C)[C@H]2[C@@H]1C`, the Activity amounted to 97.9% in assay [3], 111% in assay [4] and 102% in assay [5].

For `CCC(/C=C/[C@@H](C)[C@H]1CC[C@H]2[C@@H]3CC=C4C[C@@H](O[C@@H]5O[C@H](CO)[C@@H](O[C@@H]6O[C@@H](C)[C@H](O)[C@@H](O)[C@H]6O)[C@H](O)[C@H]5O[C@@H]5O[C@@H](C)[C@H](O)[C@@H](O)[C@H]5O)CC[C@]4(C)[C@H]3CC[C@]12C)C(C)C` (stereo partly specified), the Activity in assay [3] turned out to be 73.6%; in assay [4], 76.2%; in assay [5], 64.6%.

Turning to `COC(=O)[C@]12CC[C@@H](C)[C@H](C)[C@H]1C1=CC[C@@H]3[C@@]4(C)CC[C@H](O[C@@H]5O[C@H](CO)[C@@H](O[C@@H]6O[C@@H](C)[C@H](O)[C@@H](O)[C@H]6O)[C@H](O)[C@H]5O[C@@H]5O[C@@H](C)[C@H](O)[C@@H](O)[C@H]5O)C(C)(C)[C@@H]4CC[C@@]3(C)[C@]1(C)CC2`, the IC50 worked out at 8.54 µM in assay [1] and 6 µM in assay [2]. Besides, the Activity in assay [3] turned out to be 37.7%; in assay [4], 86%; in assay [5], 43.3%.

For the compound `Cc1cn([C@H]2C[C@H](N=[N+]=[N-])[C@@H](CO)O2)c(=O)[nH]c1=O` [ZIDOVUDINE], the values for the IC50 in assay [1] and in assay [2] were 0.011 µM and 0.012 µM, respectively. Moreover, in assay [4], the Activity worked out at 0.015%.

As for `COC(=O)[C@]12CCC(C)(C)C[C@H]1C1=CC[C@@H]3[C@@]4(C)CC[C@H](O[C@@H]5O[C@H](CO)[C@@H](O[C@@H]6O[C@@H](C)[C@H](O)[C@@H](O)[C@H]6O)[C@H](O)[C@H]5O[C@@H]5O[C@@H](C)[C@H](O)[C@@H](O)[C@H]5O)C(C)(C)[C@@H]4CC[C@@]3(C)[C@]1(C)CC2`, the Activity in assay [3] was found to be 35.3%; in assay [4] it was 48.4%; in assay [5], 17.5%.

With `C[C@@H]1CC[C@@]2(OC1)O[C@H]1C[C@H]3[C@@H]4C[C@H](O)[C@H]5C[C@@H](O[C@@H]6O[C@H](CO)[C@@H](O[C@@H]7O[C@@H](C)[C@H](O)[C@@H](O)[C@H]7O)[C@H](O)[C@H]6O)CC[C@]5(C)[C@H]4CC[C@]3(C)[C@H]1[C@@H]2C`, the figures for the Activity in assay [3], in assay [4] and in assay [5] were 98.2%, 117% and 87.4%, respectively.
